Test results reported in paper PMC4805166, “Synthetic Cyclolipopeptides Selective against Microbial, Plant and Animal Cell Targets by Incorporation of D-Amino Acids or Histidine” (PLoS ONE, 2016).
Where “and” joins values, the source holds several entries; their conditions need not be identical. Equal entries are not always repeated. Where two headings read alike, the source gives them in different places. Where a SMILES comes first, the peptide text is derived from it. Side-chain parts run from the residue outwards. [ ]: non-standard residue; d: D form. The star is where a group is joined. Pentanoyl(4-Me) = CC(C)CCC(=O)*; Octanoyl = CCCCCCCC(=O)*; Hexanoyl = CCCCCC(=O)*

Tests used:
[1] = tested on: Pseudomonas syringae pv. syringae EPS94; type: cell-based; details: 48 h
Method: (§1) The following plant pathogenic bacterial strains were used: Erwinia amylovora PMV6076 (Institut National de la Recherche Agronomique, Angers, France), Pseudomonas syringae pv. syringae EPS94 (Institut de Tecnologia Agroalimentària, Universitat de Girona, Spain) and Xanthomonas axonopodis pv. vesicatoria 2133–2 (Instituto Valenciano de Investigaciones Agrarias, Valencia, Spain). All bacteria were stored in Luria Bertani (LB) broth supplemented with glycerol (20%) and maintained at -80°C. Bacteria were scrapped from LB agar after growing for 24–48 h at 25°C. The cell material was suspended in sterile water to obtain a suspension of 10^8 CFU mL^-1.
(§2) Lyophilized peptides were solubilized in sterile Milli-Q water to a final concentration of 1 mM and filter sterilized through a 0.22-μm pore filter. For minimum inhibitory concentration (MIC) assessment, dilutions of the compounds were made to obtain a stock concentration of […]. For antibacterial activity twenty microlitres of each dilution were mixed in a microtiter plate well with 20 μL of the corresponding suspension of the bacterial indicator, 160 μL of Trypticase Soy Broth (TSB) (BioMèrieux, France) to a total volume of 200 μL. For antifungal activity 20 μL of each stock solution were mixed in a microtiter plate well with 80 μL of the corresponding suspension of the fungal pathogen and 100 μL of double concentrated PDB to a total volume of 200 μL containing 0.003% w/v of choramphenicol.
(§3) Three replicates for each strain, compound and concentration were used. Microbial growth was determined by optical density measurement at 600 nm (Bioscreen C, Labsystem, Helsinki, Finland). For antibacterial activity microplates were incubated at 25°C with 20 sec shaking before hourly absorbance measurement for 48 h. For antifungal activity microplates were incubated at 20°C with 1 min shaking before absorbance measurement that were done every two hours during seven days. The experiment was repeated twice. The MIC was taken as the lowest compound concentration with no growth at the end of the experiment.

[2] = tested on: Xanthomonas axonopodis pv. vesicatoria 2133–2; type: cell-based; details: TSB, 25°C, 48 h, OD 600 nm; tested at 3.1, 6.2, 12.5, 25, 50 μM; three replicates, experiment repeated twice; MIC = lowest concentration with no growth
Method: as §1, §2, §3

[3] = tested on: Fusarium oxysporum f. sp. lycopersici FOL 3 race 2; test: MIC, antifungal growth inhibition; type: cell-based
Method: Fusarium oxysporum f. sp. lycopersici FOL 3 race 2 (ATCC 201829, American Type Culture Collection) was used as fungal pathogen. The strain was cultured on potato dextrose agar (PDA) plates (Difco) and microconidia were obtained after growth at 25°C. The concentration of conidia was determined using a hemacytometer and adjusted to 10^4 conidia mL^-1.
as §2, §3

[4] = tested on: Erwinia amylovora PMV6076; test: MIC, in vitro growth inhibition; type: cell-based; details: TSB, 25°C, 48 h, OD 600 nm; tested at 3.1, 6.2, 12.5, 25, 50 μM; three replicates, experiment repeated twice; MIC = lowest concentration with no growth
Method: as §1, §2, §3

[5] = tested on: erythrocyte suspensions of horse blood; details: horse erythrocytes 5% vol/vol, TRIS buffer pH 7.2, 1 h at 37°C, absorbance 540 nm, relative to melittin 100 μM, ± confidence interval (α = 0.05); for Hemolysis (%) 150 µM: 150 µM peptide; for Hemolysis (%) 250 µM: 250 µM peptide;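 as to all read-outs here: Read-out is hemoglobin release into the supernatant, with a buffer-only blank subtracted as the 0% baseline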
Method: Blood was centrifuged at 6000g for 5 min, washed three times with TRIS buffer (10 mM TRIS, 150 mM NaCl, pH 7.2) and diluted.
Compounds were solubilized in TRIS buffer and mixed with horse erythrocytes and the final concentrations tested were 250 and 150 μM. The mixture was incubated under continuous shaking for 1 h at 37°C. Then, the tubes were centrifuged at 3500g for 10 min, 80 μL aliquots of the supernatant transferred to 100-well microplates (Bioscreen), diluted with 80 μL water, and the absorbance measured at 540 nm (Bioscreen). Complete hemolysis was obtained by the addition of melittin at 100 μM (Sigma-Aldrich Corporation, Madrid, Spain). The percentage of hemolysis (H) was calculated using the equation: H = 100×[(Op−Ob)/(Om−Ob)], where Op was the density for a given compound concentration, Ob for the buffer, and Om for the melittin positive control.

[6] = PDB with 0.003% chloramphenicol, 20°C, seven days, OD 600 nm, tested at 3.1, 6.2, 12.5, 25, 50 μM, three replicates, repeated twice

Structure (SMILES)	MIC Pss [1]	MIC Xav [2]	MIC Fo [3, 6]	MIC Ea [4]	Hemolysis (%) 150 µM [5]	Hemolysis (%) 250 µM [5]	MIC Fo [3]
CCCCCC(=O)NCCCC[C@H]1NC(=O)[C@H](CCCCN)NC(=O)[C@H](CC(C)C)NC(=O)[C@H](CCCCN)NC(=O)[C@H](CCCCN)NC(=O)[C@H](CCC(N)=O)NC(=O)[C@H](CC(C)C)NC(=O)[C@H](CCCCN)NC(=O)[C@H](CCCCN)NC(=O)[C@H](Cc2ccccc2)NC1=O [BPC628, c(KKLKk(CO-nC5H11)FKKLQ)] (cyclo(FKKLQKKLK[dK](Hexanoyl)))	12.5 to 25 µM	6.2 to 12.5 µM	6.2 to 12.5 µM	25 to 50 µM	19 ± 2%	34 ± 3%	–
CC(C)CCC(=O)NCCCC[C@H]1NC(=O)[C@H](CCCCN)NC(=O)[C@H](CC(C)C)NC(=O)[C@H](CCCCN)NC(=O)[C@H](CCCCN)NC(=O)[C@H](CCC(N)=O)NC(=O)[C@H](CC(C)C)NC(=O)[C@H](CCCCN)NC(=O)[C@H](CCCCN)NC(=O)[C@H](Cc2ccccc2)NC1=O [BPC630, c(KKLKk(CO-isoC5H11)FKKLQ)] (cyclo(FKKLQKKLK[dK](Pentanoyl(4-Me))))	6.2 to 12.5 µM	6.2 to 12.5 µM	6.2 to 12.5 µM	25 to 50 µM	22 ± 2%	28 ± 3%	–
CCCCCC(=O)NCCCC[C@@H]1NC(=O)[C@H](CCCCN)NC(=O)[C@H](CC(C)C)NC(=O)[C@H](CCCCN)NC(=O)[C@H](CCCCN)NC(=O)[C@H](CCC(N)=O)NC(=O)[C@H](CC(C)C)NC(=O)[C@H](CCCCN)NC(=O)[C@H](CCCCN)NC(=O)[C@H](Cc2c[nH]cn2)NC1=O [BPC636, c(KKLKK(CO-nC5H11)HKKLQ)] (cyclo(HKKLQKKLKK(Hexanoyl)))	6.2 to 12.5 µM	12.5 to 25 µM	6.2 to 12.5 µM	25 to 50 µM	5 ± 2%	16 ± 5%	–
CC(C)CCC(=O)NCCCC[C@@H]1NC(=O)[C@H](CCCCN)NC(=O)[C@H](CC(C)C)NC(=O)[C@H](CCCCN)NC(=O)[C@H](CCCCN)NC(=O)[C@H](CCC(N)=O)NC(=O)[C@H](CC(C)C)NC(=O)[C@H](CCCCN)NC(=O)[C@H](CCCCN)NC(=O)[C@H](Cc2c[nH]cn2)NC1=O [BPC638, c(KKLKK(CO-isoC5H11)HKKLQ)] (cyclo(HKKLQKKLKK(Pentanoyl(4-Me))))	6.2 to 12.5 µM	25 to 50 µM	6.2 to 12.5 µM	25 to 50 µM	6 ± 2%	8 ± 5%	–
CCCCCCCC(=O)NCCCC[C@H]1NC(=O)[C@H](CCCCN)NC(=O)[C@H](CC(C)C)NC(=O)[C@H](CCCCN)NC(=O)[C@H](CCCCN)NC(=O)[C@H](CCC(N)=O)NC(=O)[C@H](CC(C)C)NC(=O)[C@H](CCCCN)NC(=O)[C@H](CCCCN)NC(=O)[C@H](Cc2ccccc2)NC1=O [BPC666, c(KKLKk(CO-C7H15)FKKLQ)] (cyclo(FKKLQKKLK[dK](Octanoyl)))	12.5 to 25 µM	12.5 to 25 µM	6.2 to 12.5 µM	25 to 50 µM	61 ± 2%	73 ± 3%	–
CCCCCCCC(=O)NCCCC[C@@H]1NC(=O)[C@H](CCCCN)NC(=O)[C@H](CC(C)C)NC(=O)[C@H](CCCCN)NC(=O)[C@H](CCCCN)NC(=O)[C@H](CCC(N)=O)NC(=O)[C@H](CC(C)C)NC(=O)[C@H](CCCCN)NC(=O)[C@H](CCCCN)NC(=O)[C@@H](Cc2ccccc2)NC1=O [BPC668, c(KKLKK(CO-C7H15)fKKLQ)] (cyclo(KKLKK(Octanoyl)[dF]KKLQ))	12.5 to 25 µM	6.2 to 12.5 µM	6.2 to 12.5 µM	25 to 50 µM	79 ± 2%	79 ± 1%	–
CCCCCCCC(=O)NCCCC[C@@H]1NC(=O)[C@H](CCCCN)NC(=O)[C@H](CC(C)C)NC(=O)[C@H](CCCCN)NC(=O)[C@H](CCCCN)NC(=O)[C@H](CCC(N)=O)NC(=O)[C@H](CC(C)C)NC(=O)[C@H](CCCCN)NC(=O)[C@H](CCCCN)NC(=O)[C@H](Cc2c[nH]cn2)NC1=O [BPC670, c(KKLKK(CO-C7H15)HKKLQ)] (cyclo(HKKLQKKLKK(Octanoyl)))	12.5 to 25 µM	12.5 to 25 µM	3.1 to 6.2 µM	25 to 50 µM	34 ± 1%	40 ± 1%	–
CCCCCC(=O)N[C@@H](CCCCN)C(=O)N[C@@H](CC(C)C)C(=O)NCCCC[C@H]1NC(=O)[C@H](CCCCN)NC(=O)[C@H](CC(C)C)NC(=O)[C@H](CCCCN)NC(=O)[C@H](CCCCN)NC(=O)[C@H](CCC(N)=O)NC(=O)[C@H](CC(C)C)NC(=O)[C@H](CCCCN)NC(=O)[C@H](CCCCN)NC(=O)[C@H](Cc2ccccc2)NC1=O [BPC672, c(KKLKk(LK-CO-nC5H11)FKKLQ)] (cyclo(FKKLQKKLK[dK]([Leu-Lys-Hexanoyl])))	6.2 to 12.5 µM	3.1 to 12.5 µM and 6.2 to 12.5 µM	3.1 to 6.2 µM	25 to 50 µM	33 ± 2%	33 ± 2%	3.1 to 6.2 µM
CCCCCC(=O)N[C@@H](CCCCN)C(=O)N[C@@H](CC(C)C)C(=O)NCCCC[C@@H]1NC(=O)[C@H](CCCCN)NC(=O)[C@H](CC(C)C)NC(=O)[C@H](CCCCN)NC(=O)[C@H](CCCCN)NC(=O)[C@H](CCC(N)=O)NC(=O)[C@H](CC(C)C)NC(=O)[C@H](CCCCN)NC(=O)[C@H](CCCCN)NC(=O)[C@@H](Cc2ccccc2)NC1=O [BPC674, c(KKLKK(LK-CO-nC5H11)fKKLQ)] (cyclo(KKLKK([Leu-Lys-Hexanoyl])[dF]KKLQ))	6.2 to 12.5 µM	3.1 to 12.5 µM and 6.2 to 12.5 µM	3.1 to 6.2 µM	25 to 50 µM	51 ± 2%	56 ± 2%	3.1 to 6.2 µM
CCCCCC(=O)NCCCC[C@H]1NC(=O)[C@H](CCCCN)NC(=O)[C@H](CCC(N)=O)NC(=O)[C@H](CC(C)C)NC(=O)[C@H](CCCCN)NC(=O)[C@H](CCCCN)NC(=O)[C@H](Cc2ccccc2)NC(=O)[C@H](CCCCN)NC(=O)[C@H](CCCCN)NC(=O)[C@H](CC(C)C)NC1=O [BPC678] (cyclo(FKKLQK[dK](Hexanoyl)LKK))	12.5 to 25 µM	6.2 to 12.5 µM	3.1 to 6.2 µM	25 to 50 µM	68 ± 3%	73 ± 4%	–
CCCCCC(=O)NCCCC[C@@H]1NC(=O)[C@H](CCCCN)NC(=O)[C@H](CCC(N)=O)NC(=O)[C@H](CC(C)C)NC(=O)[C@H](CCCCN)NC(=O)[C@H](CCCCN)NC(=O)[C@@H](Cc2ccccc2)NC(=O)[C@H](CCCCN)NC(=O)[C@H](CCCCN)NC(=O)[C@H](CC(C)C)NC1=O [BPC680, c(KK(CO-nC5H11)LKKfKKLQ)] (cyclo(KK(Hexanoyl)LKK[dF]KKLQ))	25 to 50 µM	12.5 to 25 µM	3.1 to 6.2 µM	25 to 50 µM	77 ± 2%	81 ± 4%	–
CCCCCC(=O)NCCCC[C@@H]1NC(=O)[C@H](CCCCN)NC(=O)[C@H](CCC(N)=O)NC(=O)[C@H](CC(C)C)NC(=O)[C@H](CCCCN)NC(=O)[C@H](CCCCN)NC(=O)[C@H](Cc2c[nH]cn2)NC(=O)[C@H](CCCCN)NC(=O)[C@H](CCCCN)NC(=O)[C@H](CC(C)C)NC1=O [BPC682] (cyclo(HKKLQKK(Hexanoyl)LKK))	12.5 to 25 µM	12.5 to 25 µM	3.1 to 6.2 µM	25 to 50 µM	20 ± 3%	27 ± 1%	–
